Experiments:
[1] = system: c-Myc (DNA, G4) TGAGGGTGGGTAGGGTGGGTAA; test: fluorescence lifetime displacement assay (TCSPC); conditions: 100 mM KCl (K+), 10 mM lithium cacodylate (Li+), pH 7.3, 2 µM DAOTA-M2 displaced, 4 µM c-Myc
[2] = system: c-Myc (DNA, G4) TGAGGGTGGGTAGGGTGGGTAA; test: fluorescence lifetime (TCSPC); conditions: 100 mM KCl (K+), 10 mM lithium cacodylate (Li+); pH 7.3; 2 µM DAOTA-M2, 4 µM c-Myc, 20 µM CT-DNA present; lifetime 6.1 to 11.7 ns
[3] = system: ds26 (DNA, duplex) CAATCGGATCGAATTCGATCCGATTG; test: fluorescence lifetime (TCSPC); conditions: 100 mM KCl (K+), 10 mM lithium cacodylate (Li+) (buffer part); Xenopus egg extract 33 µL + 12 µL buffer; 2 µM DAOTA-M2, 44 µM ds26; 21 °C; lifetime 6.1 ns

| Structure (SMILES) | binding [1] | further results |
| --- | --- | --- |
| N=C(N)c1ccc(-c2cc3ccc(C(=N)N)cc3[nH]2)cc1 |  | binding ([1]; 20 µM CT-DNA present, small lifetime drop): no |
| NCCOc1cc(C(=O)Nc2cc(OCCN)c3ccccc3n2)nc(C(=O)Nc2cc(OCCN)c3ccccc3n2)c1 |  | binding ([1]; 20 µM CT-DNA present, PDS to 14.4 µM): yes |
| [O-]c1cc(OCCN2CCCCC2)ccc1/C=N/c1ccccc1/N=C/c1ccc(OCCN2CCCCC2)cc1[O-].[Zn+2] | weak |  |
| c1cc2oc3cccc4c3[c+]3c2c(c1)n(CCN1CCOCC1)c1cccc(c13)n4CCN1CCOCC1 |  | binding [2]: yes; binding [3]: yes |

Further lines, with some results ahead:

| binding [1] | Structure (SMILES) | further results |
| --- | --- | --- |
| yes | [Cu+2].[O-]c1cc(OCCN2CCCCC2)ccc1/C=N/c1ccccc1/N=C/c1ccc(OCCN2CCCCC2)cc1[O-] |  |
| yes | [Ni+2].[O-]c1cc(OCCN2CCCCC2)ccc1/C=N/c1ccccc1/N=C/c1ccc(OCCN2CCCCC2)cc1[O-] |  |
| yes | [O-2].[O-]c1cc(OCCN2CCCCC2)ccc1/C=N/c1ccccc1/N=C/c1ccc(OCCN2CCCCC2)cc1[O-].[V+4] |  |

Reference: publication PMC7794231 (2021)
